Test results reported in patent US9180193B2, “Antiviral compounds” (Hoffmann-La Roche Inc., priority 2011, dated 2015).

test system: not listed separately; experiment: in vitro; format: cell-based; settings: human
Description: Determination of Compounds Cytotoxicity Using the HCV GT1b Replicon Cell Line Measuring WST1.
2209-23 cells were plated at a cell density of 5000 cells per well in clear flat-bottom 96 well plate (Becton Dickinson, Cat #35 3075) for cell viability studies. The WST-1 cell proliferation assay (Roche Diagnostic, Cat#11644807001) was used to determine cell viability. Assay plates were set up in the same format as in the replicon assay. After 3 days of compound incubation 10 μl of WST-1 reagent was added to each well for 2 hours at 37° C. and 5% CO2, following manufacturer's instructions. Absorption reading at 450 nm (reference filter at 650 nm) was determined using MRX Revelation microtiter plate reader (Lab System). CC50 values were defined as the compound concentration required for reducing cell viability by 50% as compared to the untreated control in absence of compound and was determined by non-linear fitting of compound dose-response data. Representative assay data can be found in Table II below: […]

COC(=O)N[C@H]1CCC(=O)N2CCC[C@@H](c3ncc(-c4ccc(-c5cnc6cc(-c7cnc([C@@H]8CCCN8C(=O)[C@@H](NC(=O)OC)C(C)C)[nH]7)ccc6n5)cc4)[nH]3)N2C1=O [Compound I-4, ((4S,7S)-4-{5-[4-(6-{2-[(S)-1-((S)-2-Methoxycarbonylamino-3-methyl-butyryl)-pyrrolidin-2-yl]-3H-imidazol-4-yl}-quinoxalin-2-yl)-phenyl]-1H-imidazol-2-yl}-6,10-dioxo-octahydro-pyridazino[1,2-a][1,2]diazepin-7-yl)-carbamic acid methyl ester] showed a CC50 at 3 days of 8160 nM.

test system: GT-1a pRLuc H77 1b 75 SI subgenomic replicon cell line (Huh7); experiment: HCV GT-1a replicon luciferase reporter assay; format: cell-based; settings: Hepatitis C virus, GT1A, Huh-7; Renilla luciferase reporter read 72 hours after compound addition; GT-1a H77 replicon cells
From the text: Determination of compounds HCV GT1b inhibitory replicon activity using the replicon luciferase reporter assay
The 2209-23 cell line was developed at Roche by stable transfection of the hepatoma cell line Huh-7 with a GT-1b Con1 subgenomic bicistronic replicon as previously described. Subgenomic replicon cell line was established in cured Huh7 cells, obtained from R. Bartenschlager (J Virol. 2003 March; 77 (5):3007-19) The GT-1a H77 subgenomic replicon vector pRLuc H77 lb 75 SI, was created by replacing the non structural region of the GT-1b Con1 subgenomic replicon by the one of the H77 strain, except for the first 75 amino acids of the NS3 protein that are from GT-1b Con1 strain. (J Virol. 2001 77:5352-59) The GT-1a pRLuc H77 1b 75 SI subgenomic replicon cell line was established in cured Huh7 cells, obtained from R. Bartenschlager. (J Virol. 2003 March; 77 (5):3007-19)
All the subgenomic replicon cell lines were cultured in Dulbecco's Modified Eagle Medium (DMEM-Glutamax™-I; Invitrogen Cat #10569-010). The medium was supplemented with 10% Fetal Bovine Serum (Invitrogen Cat #10082-147), 1% penicillin/streptomycin (Mediatech Cat #30-002-CI) and 500 μg/ml of G418 (Mediatech Cat #30-234-CI). Cells were maintained at 37° C. in a humidified 5% CO2 atmosphere.
2209-23 cells were plated at a cell density of 5000 cells per well in 96 well plates (Becton Dickinson, Cat #35 3296). Cells were plated in 90 μl of Dulbecco's Modified Eagle Medium (DMEM-Glutamax™-I), (Invitrogen Cat #10569-010) medium was supplemented with 5% Fetal Bovine Serum (Invitrogen Cat #10082-147), 1% penicillin/streptomycin (Mediatech Cat #30-002-CI). The pRluc H77 1b 75 SI cells were plated in 96-well plate at 3000 cells/well in DMEM-Glutamax™-I containing 5% FBS and 1% penicillin/streptomycin in 90 μl final volume. Cells were allowed to equilibrate for 24 hours at 37° C. and 5% CO2 at which time compounds were added. Compounds (or medium as a control) were added 24 hours post-plating in 3 fold dilutions at a final DMSO concentration of 1% in 10 ul volume. Renilla luciferase reporter signal was read 72 hours after addition of compounds using the Renilla Luciferase Assay System (Promega, cat # E2820). EC50 values were defined as the compound concentration at which a 50% reduction in the levels of renilla luciferase reporter was observed as compared to control samples in the absence of compound and was determined by non-linear fitting of compound dose-response data. The EC50 was approximated if maximum percentage inhibition was less than 90% and more than 70%.

In order of rising EC50:
1. COC(=O)N[C@H]1CCC(=O)N2CCC[C@@H](c3ncc(-c4ccc(-c5cnc6cc(-c7cnc([C@@H]8CCCN8C(=O)[C@@H](NC(=O)OC)C(C)C)[nH]7)ccc6n5)cc4)[nH]3)N2C1=O [Compound I-4, ((4S,7S)-4-{5-[4-(6-{2-[(S)-1-((S)-2-Methoxycarbonylamino-3-methyl-butyryl)-pyrrolidin-2-yl]-3H-imidazol-4-yl}-quinoxalin-2-yl)-phenyl]-1H-imidazol-2-yl}-6,10-dioxo-octahydro-pyridazino[1,2-a][1,2]diazepin-7-yl)-carbamic acid methyl ester]  0.13 nM
2. COC(=O)N[C@H]1CCC(=O)N2CCC[C@@H](c3ncc(-c4ccc(-c5ccc(-c6cnc([C@@H]7CC(F)(F)CN7C(=O)[C@@H](NC(=O)OC)C(C)C)[nH]6)cc5)cc4)[nH]3)N2C1=O [Compound I-5, {(4S,7S)-4-[5-(4′-{2-[(S)-4,4-Difluoro-1-((S)-2-methoxycarbonylamino-3-methyl-butyryl)-pyrrolidin-2-yl]-3H-imidazol-4-yl}-biphenyl-4-yl)-1H-imidazol-2-yl]-6,10-dioxo-octahydro-pyridazino[1,2-a][1,2]diazepin-7-yl}-carbamic acid methyl ester]  0.92 nM
3. COC(=O)N[C@H]1CCC(=O)N2CCC[C@@H](c3ncc(-c4ccc(-c5ccc(-c6cnc([C@@H]7CCCN7C(=O)[C@@H](NC(=O)OC)C(C)C)[nH]6)cc5)cc4)[nH]3)N2C1=O [Compound I-7, {(4S,7S)-4-[5-(4′-{2-[(S)-1-((S)-2-Methoxycarbonylamino-3-methyl-butyryl)-pyrrolidin-2-yl]-3H-imidazol-4-yl}-biphenyl-4-yl)-1H-imidazol-2-yl]-6,10-dioxo-octahydro-pyridazino[1,2-a][1,2]diazepin-7-yl}-carbamic acid methyl ester]  1.1 nM
4. COC(=O)N[C@H]1CCC(=O)N2CCC[C@@H](c3ncc(-c4ccc(-c5ccc(-c6cnc(C7CC8(CCOCC8)CN7C(=O)[C@@H](NC(=O)OC)C(C)C)[nH]6)cc5)cc4)[nH]3)N2C1=O (stereo partly drawn) [Compound I-6, {(4S,7S)-4-[5-(4′-{2-[2-((S)-2-Methoxycarbonylamino-3-methyl-butyryl)-8-oxa-2-aza-spiro[4.5]dec-3-yl]-3H-imidazol-4-yl}-biphenyl-4-yl)-1H-imidazol-2-yl]-6,10-dioxo-octahydro-pyridazino[1,2-a][1,2]diazepin-7-yl}-carbamic acid methyl ester]  1.5 nM
5. COC(=O)N[C@H](C(=O)N1CCC[C@H]1c1ncc(-c2ccc(-c3ccc(-c4cnc([C@@H]5CCCN6C(=O)CC[C@H](NC(=O)OCc7ccccc7)C(=O)N56)[nH]4)cc3)cc2)[nH]1)C(C)C [Compound I-3, {(4S,7S)-4-[5-(4′-{2-[(S)-1-((S)-2-Methoxycarbonylamino-3-methyl-butyryl)-pyrrolidin-2-yl]-3H-imidazol-4-yl}-biphenyl-4-yl)-1H-imidazol-2-yl]-6,10-dioxo-octahydro-pyridazino[1,2-a][1,2]diazepin-7-yl}-carbamic acid benzyl ester]  2.95 nM
6. COC(=O)N[C@H]1CCC(=O)N2CCC[C@@H](c3ncc(-c4ccc(-c5ccc(-c6cnc([C@@H]7CCCN8C(=O)CC[C@H](NC(=O)OC)C(=O)N78)[nH]6)cc5)cc4)[nH]3)N2C1=O [Compound I-1, [(4S,7S)-4-(5-{4′-[2-((1S,9S)-9-[(Methoxycarbonyl)amino]-6,10-dioxo-octahydro-pyridazino[1,2-a][1,2]diazepin-1-yl)-3H-imidazol-4-yl]-biphenyl-4-yl}-1H-imidazol-2-yl)-6,10-dioxo-octahydro-pyridazino[1,2-a][1,2]diazepin-7-yl]-carbamic acid methyl ester]  10.6 nM
7. COC(=O)N[C@H]1CCC(=O)N2CCC[C@@H](c3nc4cc(-c5ccc(-c6cnc([C@@H]7CCCN7C(=O)[C@@H](NC(=O)OC)C(C)C)[nH]6)cc5)ccc4[nH]3)N2C1=O [Compound I-2, {(4S,7S)-4-[5-(4-{2-[(S)-1-((S)-2-Methoxycarbonylamino-3-methyl-butyryl)-pyrrolidin-2-yl]-3H-imidazol-4-yl}-phenyl)-1H-benzoimidazol-2-yl]-6,10-dioxo-octahydro-pyridazino[1,2-a][1,2]diazepin-7-yl}-carbamic acid methyl ester]  156 nM
